“And” between values parts separate entries of the source, which are not always exact repeats. Equal entries are not always repeated.
Experiments:
[1] = test system: amphotropic murine leukemia virus; assay: AMLV pseudotyped virus entry counter-screen, same infection protocol; assay type: cell-based; settings: for luciferase units, AMLV entry: duplicates; for AMLVpp % inh: peptide library screen, cell entry inhibition vs uninhibited control
Description: Infection of hepatoma cell lines with HCV pseudotype particles and screen for inhibitory peptides. The hepatoma cells, Huh7, was seeded at 8000 cells in 90 ul medium in 96-well plate. In the case of the inhibitor screen, the inhibitor was incubated with cells for one hour at 37° C. and then 50 ul viral supernatant was added to the cells 24 hours after seeding. The viral stock was pre-tittered and diluted to yield approximately 10,000 to 20,000 RLU. The cells were incubated at 37° C. with 5% CO2 for additional 72 hours and were harvested for luciferase assay. Peptide stocks were prepared in 100% DMSO at 10 mg/ml and were first screened at 100 ug/ml and then a dose responsive curve was generated with 10 points 3-fold titration starting from 100 ug/ml.
The specificity of the peptides were counter-screened with AMLV and HIV pseudotyped viruses using the same infection protocol.

HCV pseudoparticles = assay: HCV pseudoparticle (HCVpp) entry assay in Huh7 hepatoma cells, luciferase readout; assay type: cell-based, hepatitis C virus; settings: for luciferase units, HCV entry / viral entry as a percentage of the uninhibited control: duplicates; for viral entry as a percentage of the uninhibited control: HCV entry; for % of control at ~30 uM: percentage of hepatitis C virus cellular entry at 30 μM peptide vs uninhibited control; for HCVpp % inh: peptide library screen, first screened at 100 ug/ml, cell entry inhibition vs uninhibited control
Procedure, shortened: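 Pseudoparticles carrying HCV E1/E2 on an HIV luciferase backbone were produced in 293T cells; peptide was pre-incubated 1 h at 37 °C with Huh7 cells, then virus added and luciferase read after 72 h. Dose-response used 10-point 3-fold titration from 100 ug/ml; envelope-less particles controlled non-specific entry.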

[2] = 0.01371742 uM of peptide (three lines)

| Substance | luciferase units, AMLV entry [1, 2] | luciferase units, AMLV entry ([1]; 0.04115226 uM of peptide) | luciferase units, AMLV entry ([1]; 0.1234568 uM of peptide) | luciferase units, AMLV entry ([1]; 0.3703704 uM of peptide) | luciferase units, AMLV entry ([1]; 1.111111 uM of peptide) | luciferase units, AMLV entry ([1]; 3.333333 uM of peptide) | luciferase units, AMLV entry ([1]; 30 uM of peptide) | luciferase units, HCV entry (HCV pseudoparticles; 0.04115226 uM of peptide) | luciferase units, HCV entry (HCV pseudoparticles; 0.1234568 uM of peptide) | luciferase units, HCV entry (HCV pseudoparticles; 0.3703704 uM of peptide) | luciferase units, HCV entry (HCV pseudoparticles; 1.111111 uM of peptide) | luciferase units, HCV entry (HCV pseudoparticles; 10 uM of peptide) | luciferase units, HCV entry (HCV pseudoparticles; 30 uM of peptide) | % of control at ~30 uM (HCV pseudoparticles) [%] | AMLVpp % inh [1] [%] | HCVpp % inh (HCV pseudoparticles) [%] | further results |
| --- | --- | --- | --- | --- | --- | --- | --- | --- | --- | --- | --- | --- | --- | --- | --- | --- | --- |
| A-I-K-W-E-Y-V-L-L-L-F-L-L [SEQ ID NO: 81] | 46029 luciferase units and 39655 luciferase units and 41740 luciferase units and 42548 luciferase units and 45150 luciferase units and 45203 luciferase units | 40104 luciferase units and 51496 luciferase units | 51789 luciferase units and 49401 luciferase units | 48861 luciferase units and 55221 luciferase units | 54439 luciferase units and 53032 luciferase units | 62658 luciferase units and 51388 luciferase units | 86600 luciferase units and 64937 luciferase units | 3138 luciferase units and 5487 luciferase units | 1665 luciferase units and 1759 luciferase units | 2133 luciferase units and 2617 luciferase units | 2065 luciferase units and 2449 luciferase units | 2584 luciferase units and 3853 luciferase units | 990 luciferase units and 667 luciferase units | 17 | – | – | % control (HCVpp entry), glycine scanning (HCV pseudoparticles; 0.00003 uM of peptide, two values per peptide and row): 86 % control and 77 % control and 104 % control and 134 % control; % control (HCVpp entry), glycine scanning (HCV pseudoparticles; 0.0001 uM of peptide, two values per peptide): 103 % control and 79 % control; % control (HCVpp entry), glycine scanning (HCV pseudoparticles; 0.0003 uM of peptide, two values per peptide): 90 % control and 105 % control; % control (HCVpp entry), glycine scanning (HCV pseudoparticles; 0.001 uM of peptide, two values per peptide): 94 % control and 114 % control; % control (HCVpp entry), glycine scanning (HCV pseudoparticles; 0.003 uM of peptide, two values per peptide): 82 % control and 66 % control; % control (HCVpp entry), glycine scanning (HCV pseudoparticles; 0.01 uM of peptide, two values per peptide): 70 % control and 71 % control; % control (HCVpp entry), glycine scanning (HCV pseudoparticles; 0.03 uM of peptide, two values per peptide): 51 % control and 38 % control; % control (HCVpp entry), glycine scanning (HCV pseudoparticles; 0.3 uM of peptide, two values per peptide): 39 % control and 31 % control; % control (HCVpp entry), glycine scanning (HCV pseudoparticles; 10 uM of peptide, two values per peptide): 22 % control and 34 % control; % control (HCVpp entry), glycine scanning (HCV pseudoparticles; 30 uM of peptide, two values per peptide): 30 % control and 26 % control; viral entry as a percentage of the uninhibited control (HCV pseudoparticles; 0.1 nM of peptide (three lines), 0.0001 µM): 79% and 103% and 77% and 86% and 134% and 104%; viral entry as a percentage of the uninhibited control (HCV pseudoparticles; 0.3 nM of peptide, 0.0003 µM): 105% and 90%; viral entry as a percentage of the uninhibited control (HCV pseudoparticles; 1 nM of peptide, 0.001 µM): 114% and 94%; viral entry as a percentage of the uninhibited control (HCV pseudoparticles; 3 nM of peptide, 0.003 µM): 66% and 82%; viral entry as a percentage of the uninhibited control (HCV pseudoparticles; 10 nM of peptide, 0.01 µM): 71% and 70%; viral entry as a percentage of the uninhibited control (HCV pseudoparticles; 30 nM of peptide, 0.03 µM): 38% and 51%; viral entry as a percentage of the uninhibited control (HCV pseudoparticles; 300 nM of peptide, 0.3 µM): 31% and 39%; viral entry as a percentage of the uninhibited control (HCV pseudoparticles; 10000 nM of peptide, 10 µM): 34% and 22%; viral entry as a percentage of the uninhibited control (HCV pseudoparticles; 30000 nM of peptide, 30 µM): 26% and 30% |
| R-F-G-V-P-T-Y-S-W-G-E-N-E-T-D-V [SEQ ID NO: 50] | – | – | – | – | – | – | – | – | – | – | – | – | – | – | 33 | 34 | – |
| F-A-Q-G-W-G-P-I-T-Y-N-E-S-H-S-S [SEQ ID NO: 42] | – | – | – | – | – | – | – | – | – | – | – | – | – | – | 15 | 49 | – |
| F-L-A-A-L-F-Y-V-H-K-F-N-S-S-G-C [SEQ ID NO: 38] | – | – | – | – | – | – | – | – | – | – | – | – | – | – | −44 | 23 | – |
| A-I-K-W-E-Y-V-L-L-F-L-L-L [SEQ ID NO: 98] | 44492 luciferase units and 44531 luciferase units and 47406 luciferase units and 49869 luciferase units and 51067 luciferase units and 61382 luciferase units | 41463 luciferase units and 41610 luciferase units | 45455 luciferase units and 45030 luciferase units | 42748 luciferase units and 48710 luciferase units | 45508 luciferase units and 44147 luciferase units | 59984 luciferase units and 48300 luciferase units | 81103 luciferase units and 70832 luciferase units | 6486 luciferase units and 6677 luciferase units | 4583 luciferase units and 6873 luciferase units | 2830 luciferase units and 5272 luciferase units | 3285 luciferase units and 2555 luciferase units | 2186 luciferase units and 2352 luciferase units | 1938 luciferase units and 2251 luciferase units | 10 | – | – | luciferase units, AMLV entry ([1]; 10 uM of peptide): 111324 luciferase units and 59835 luciferase units; % control (HCVpp entry), proline scanning (HCV pseudoparticles; 0.1 nM of peptide (printed for three rows), two values per peptide and row): 85 % control and 77 % control and 86 % control and 109 % control and 95 % control; % control (HCVpp entry), proline scanning (HCV pseudoparticles; 0.3 nM of peptide, two values per peptide): 90 % control and 68 % control; % control (HCVpp entry), proline scanning (HCV pseudoparticles; 1 nM of peptide, two values per peptide): 93 % control and 94 % control; % control (HCVpp entry), proline scanning (HCV pseudoparticles; 3 nM of peptide, two values per peptide): 86 % control and 52 % control; % control (HCVpp entry), proline scanning (HCV pseudoparticles; 10 nM of peptide, two values per peptide): 47 % control and 50 % control; luciferase units, HCV entry (HCV pseudoparticles; [2]): 9747 luciferase units and 12623 luciferase units and 16027 luciferase units and 17299 luciferase units and 19079 luciferase units and 17575 luciferase units; % control (HCVpp entry), proline scanning (HCV pseudoparticles; 30 nM of peptide, two values per peptide): 41 % control and 35 % control; % control (HCVpp entry), proline scanning (HCV pseudoparticles; 100 nM of peptide, two values per peptide): 31 % control and 41 % control; % control (HCVpp entry), proline scanning (HCV pseudoparticles; 300 nM of peptide, two values per peptide): 21 % control and 29 % control; luciferase units, HCV entry (HCV pseudoparticles; 3.333333 uM of peptide): 2647 luciferase units and 2056 luciferase units; % control (HCVpp entry), proline scanning (HCV pseudoparticles; 10000 nM of peptide, two values per peptide): 27 % control and 24 % control |
| L-E-A-A-C-N-W-T-R-G-E-R-C-N-L-E [SEQ ID NO: 67] | – | – | – | – | – | – | – | – | – | – | – | – | – | – | 37 | 26 | – |

From patent publication US20100119483A1, “PEPTIDE VIRAL ENTRY INHIBITORS” (Schering Corporation, priority 2004, published 2010)
